According to patent publication US20180126048A1, “NANOPARTICLE-MEDICATED GENETIC DELIVERY OF GROWTH INHIBITING GENES ON BALLOON ANGIOPLASTY TO SUPPRESS INTIMAL HYPERPLASIA” (Board of Education of the Vocational Schools in the County …, priority 2014, published 2018):

Tested on: left carotid artery
Assay: Glycerol infusion into the artery (cannulation) during carotid injury surgery
Assay type: in vivo, rat
Conditions: glycerol infused into the artery, compared to glycerol coated on a balloon
Protocol: In total, nine surgeries were performed on nine separate rats. The initial two surgeries represented the first control group—standard left carotid artery injury surgeries. The next two surgeries comprised the second control group—rats which received a standard left carotid artery injury surgery, modified slightly to include a glycerol coating without nanoparticles-carried plasmids on the catheter to test whether or not the substance (without the shRNA-encoding plasmid) had any noteworthy effects on the artery and/or the overall health of the animal before the nanoparticle treatment was delivered. The balloon was immersed in glycerol until 100 μL had covered its surface. Another two surgeries served as an experimental group to compare the method of delivery with the glycerol-coated balloon to a more direct method of delivery: infusion. After the arteriotomy was performed, the artery was cannulated (filled) with a syringe of 100 μL of 50% glycerol and flushed. The procedure then proceeded as previously described. The last three surgeries served as the experimental group utilizing the nanoparticles suspended in the glycerol that coated the balloon.
Intimal hyperplasia was further quantified using a software program, Image J, developed by the National Institutes of Health, which calculates the intimal area through image analysis. […]

OCC(O)CO [glycerol]
blood clot formation after infusion: blood clot formation
